Test results: PMC10411393 (Journal of medicinal chemistry, 2022)

Legend:
[1] = test system: Plk1; conditions: read-out: IC50 against Plk1; cited from earlier work
[2] = test system: HeLa cells; experiment: MTS cell proliferation assay in asynchronously growing HeLa cells; type: cell-based, human; conditions: treated 2 days

Row | Substance | IC50 [1] | inhibition of cell proliferation (MTS) [2]
1 | PLH*SpT | 17 nM | –
2 | PLHST | – | failed to show any detectable level of cell cytotoxicity
